Test results published in patent US9522890B2, “Compounds acting at multiple prostaglandin receptors giving a general anti-inflammatory response” (Allergan, Inc., priority 2011, dated 2016).

Assays:
Assay type in all cases: cell-based
[1] = target: T1, human recombinant prostanoid EP3 receptor (Homo sapiens, UniProt P43115); experiment: FLIPR Ca2+ signaling PG antagonist assay, EP3 receptor stable cell line; conditions: HEK-293 EBNA cells with chimeric Gqi, standard agonist PGE2
T1 construct: expressed in transfected cells; co-transfected with chimeric Gqi-HA
T1 sequence (P43115 1-390): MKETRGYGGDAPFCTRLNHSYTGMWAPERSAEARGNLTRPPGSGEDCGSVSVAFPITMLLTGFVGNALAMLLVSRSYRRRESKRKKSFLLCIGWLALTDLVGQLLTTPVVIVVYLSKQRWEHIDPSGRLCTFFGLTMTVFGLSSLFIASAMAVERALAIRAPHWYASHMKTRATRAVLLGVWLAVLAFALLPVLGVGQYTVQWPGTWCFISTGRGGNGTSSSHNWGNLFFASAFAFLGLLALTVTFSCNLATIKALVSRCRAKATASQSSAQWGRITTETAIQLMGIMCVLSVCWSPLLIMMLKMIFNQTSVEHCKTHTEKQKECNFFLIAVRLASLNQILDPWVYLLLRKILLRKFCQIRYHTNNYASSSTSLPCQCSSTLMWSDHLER
Procedure: (§1) The above compounds were tested for PG antagonist activity as follows using human recombinant prostanoid receptor (DP1, EP1-4, FP, IP and TP) stable cell lines:
(§2) In order to measure the response of Gs and Gi coupled prostanoid receptors as a Ca^2+ signal, chimeric G protein cDNAs were used. Stable cell lines over-expressing human prostanoid DP1, EP1-4, FP, IP, and TP receptors were established as follows:
(§3) Briefly, human prostanoid DP1, EP2, and EP4 receptor cDNAs were co-transfected with chimeric Gqs cDNA containing a haemagglutanin (HA) epitope; human prostanoid EP3 receptors were co-transfected with chimeric Gqi-HA; human EP1, FP, IP, and TP receptor cDNAs were expressed with no exogenous G-proteins. Gqs and Gqi chimeric cDNAs (Molecular Devices, Sunnyvale, Calif., U.S.A.), as well as cDNAs of prostanoid receptors, were cloned into a pCEP4 vector with a hygromycin B selection marker. Transfection into HEK-293 EBNA (Epstein-Barr virus nuclear antigen) cells was achieved by the FuGENE 6 transfection Reagent (Roche Applied Science, Indianapolis, Ind., USA). Stable transfectants were selected according to hygromycin resistance. Because Gqs and Gqi contained an HA epitope, G-protein expression was detected by Western blotting analysis using anti-mouse HA monoclonal antibody and horseradish peroxidase (HRP)-conjugated secondary antibody, while functional expression of prostanoid receptors was detected by FLIPR screening (Matias et al., 2004). These stable cell lines were validated using previously published antagonists at 10 μM against serial dilutions of standard agonists by FLIPR functional assays for Ca^2+ Signaling (as described below).
(§4) Ca^2+ signaling studies were performed using a FLIPR TETRA system (Molecular Devices, Sunnyvale, Calif., USA) in the 384-format. This is a high-throughput instrument for cell-based assays to monitor Ca^2+ signaling associated with GPCRs and ion channels. Cells were seeded at a density of 5×10^4 cells/well in BioCoat poly-D-lysine coated, black wall, clear bottom 384-well plates (BD Biosciences, Franklin lakes, NJ, USA) and allowed to attach overnight in an incubator at 37° C. The cells were then washed twice with HBSS-HEPES buffer (Hanks' balanced salt solution without bicarbonate and phenol red, 20 mM HEPES, pH 7.4) using an ELx405 Select CW Microplate Washer (BioTek, Winooski, Vt., USA). After 60 min of dye-loading in the dark using the Ca^2+-sensitive dye Fluo-4AM (Invitrogen, Carlsbad, Calif., USA), at a final concentration of 2×10^−6M, the plates were washed 4 times with HBSS-HEPES buffer to remove excess dye and leaving 50 μl of buffer in each well. The plates were then placed in the FLIPR TETRA instrument and allowed to equilibrate at 37° C. Compounds were added in a 25 μl volume to each well to give final concentrations of 0.1 μM, 0.3 μM, 1 μM, 3 μM, 10 μM, and 30 μM; or 0.067 μM, 0.1 μM, 0.2 μM, 0.3 μM, 0.67 μM, and 1 μM for cells over-expressing TP receptors. After 4.5 minutes, a 7-point serial dilution of the standard agonist for the corresponding receptor, in a 25 μl volume was injected at the final concentrations from 10^−11M to 10^−5M in 10-fold serial dilution increments for cells expressing human recombinant DP1, EP1, EP2, EP3, EP4, FP, and IP receptors. The dose range for the standard agonist for human recombinant TP receptors was from 10^−12M to 10^−6M. HBSS-HEPES buffer was used as the negative control for the standard agonists. Cells were excited with LED (light emitting diode) excitation at 470-495 nm and emission was measured through an emission filter at 515-575 nm. Assay plates were read for 3.5 minutes using the FLIPR^TETRA. The peak increase in fluorescence intensity was recorded for each well. On each plate, negative controls, dose response of positive controls, and co-treatments of antagonist-agonist for each dose were in triplicates. Standard agonists were as follows: DP=BW 245C, EP1-EP4=PGE2, FP=17-phenyl-PGF2α, IP=Cicaprost, and TP=U-46619. […]

[2] = target: T2, human recombinant prostanoid TP receptor (Homo sapiens, UniProt P21731); experiment: FLIPR Ca2+ signaling PG antagonist assay, TP receptor stable cell line; conditions: HEK-293 EBNA cells, standard agonist U-46619
T2 construct: expressed in transfected cells
T2 sequence (P21731 1-343): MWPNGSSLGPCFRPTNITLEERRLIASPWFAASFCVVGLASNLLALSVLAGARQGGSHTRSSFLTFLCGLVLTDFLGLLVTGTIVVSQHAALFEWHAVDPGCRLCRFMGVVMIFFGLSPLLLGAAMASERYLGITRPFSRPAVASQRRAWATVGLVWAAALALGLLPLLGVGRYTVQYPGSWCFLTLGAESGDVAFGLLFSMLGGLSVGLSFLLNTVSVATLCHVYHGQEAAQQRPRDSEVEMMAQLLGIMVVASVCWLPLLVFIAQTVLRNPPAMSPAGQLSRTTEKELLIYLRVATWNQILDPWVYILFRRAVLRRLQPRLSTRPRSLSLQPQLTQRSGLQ
Procedure: as §1, §2, §3, §4

[3] = target: T3, human recombinant prostanoid FP receptor (Homo sapiens, UniProt P43088); experiment: FLIPR Ca2+ signaling PG antagonist assay, FP receptor stable cell line; conditions: HEK-293 EBNA cells, standard agonist 17-phenyl-PGF2α
T3 construct: expressed in transfected cells
T3 sequence (P43088 whole entry): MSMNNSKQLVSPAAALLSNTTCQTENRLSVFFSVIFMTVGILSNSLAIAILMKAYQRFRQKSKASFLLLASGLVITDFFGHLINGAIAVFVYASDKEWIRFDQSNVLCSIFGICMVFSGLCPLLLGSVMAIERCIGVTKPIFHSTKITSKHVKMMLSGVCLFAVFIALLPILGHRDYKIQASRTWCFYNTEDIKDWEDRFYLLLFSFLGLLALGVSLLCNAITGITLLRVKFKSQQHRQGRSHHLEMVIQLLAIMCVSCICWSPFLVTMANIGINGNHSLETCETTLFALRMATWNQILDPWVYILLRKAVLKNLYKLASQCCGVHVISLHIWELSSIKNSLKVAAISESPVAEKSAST
Procedure: as §1, §2, §3, §4

[4] = target: T4, human recombinant prostanoid EP4 receptor (Homo sapiens, UniProt P35408); experiment: FLIPR Ca2+ signaling PG antagonist assay, EP4 receptor stable cell line; conditions: HEK-293 EBNA cells with chimeric Gqs, standard agonist PGE2
T4 construct: expressed in transfected cells; co-transfected with chimeric Gqs-HA
T4 sequence (P35408 whole entry): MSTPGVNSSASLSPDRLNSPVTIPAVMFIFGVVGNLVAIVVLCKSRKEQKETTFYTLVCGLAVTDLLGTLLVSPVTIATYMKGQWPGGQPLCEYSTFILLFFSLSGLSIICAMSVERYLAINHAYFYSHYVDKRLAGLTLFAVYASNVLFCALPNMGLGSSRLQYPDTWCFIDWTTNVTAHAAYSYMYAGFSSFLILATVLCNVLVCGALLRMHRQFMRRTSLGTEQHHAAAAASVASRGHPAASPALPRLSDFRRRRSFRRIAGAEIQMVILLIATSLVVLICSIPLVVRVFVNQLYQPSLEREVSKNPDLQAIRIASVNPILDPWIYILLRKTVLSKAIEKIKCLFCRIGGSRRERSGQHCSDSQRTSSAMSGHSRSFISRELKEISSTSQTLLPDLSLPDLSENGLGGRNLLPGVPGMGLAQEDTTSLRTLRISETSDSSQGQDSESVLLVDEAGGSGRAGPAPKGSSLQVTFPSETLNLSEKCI
Procedure: as §1, §2, §3, §4

[5] = target: T5, human recombinant prostanoid DP1 receptor (Homo sapiens, UniProt Q13258); experiment: FLIPR Ca2+ signaling PG antagonist assay, DP1 receptor stable cell line; conditions: HEK-293 EBNA cells with chimeric Gqs, standard agonist BW 245C; read-out: DP (antagonist Kb)
T5 construct: expressed in transfected cells; co-transfected with chimeric Gqs-HA
T5 sequence (Q13258 1-359): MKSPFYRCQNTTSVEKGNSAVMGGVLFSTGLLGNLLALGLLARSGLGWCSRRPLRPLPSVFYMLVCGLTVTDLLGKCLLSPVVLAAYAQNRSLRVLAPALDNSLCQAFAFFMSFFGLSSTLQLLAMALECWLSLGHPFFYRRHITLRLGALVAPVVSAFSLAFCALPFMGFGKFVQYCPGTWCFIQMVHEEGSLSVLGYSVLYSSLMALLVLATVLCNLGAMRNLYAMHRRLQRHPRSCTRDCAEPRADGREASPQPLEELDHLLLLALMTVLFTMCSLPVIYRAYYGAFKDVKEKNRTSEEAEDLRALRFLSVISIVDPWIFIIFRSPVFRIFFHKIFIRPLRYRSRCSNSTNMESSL
Procedure: as §1, §2, §3, §4

[6] = target: T6, human recombinant prostanoid EP1 receptor (Homo sapiens, UniProt P34995); experiment: FLIPR Ca2+ signaling PG antagonist assay, EP1 receptor stable cell line; conditions: HEK-293 EBNA cells, standard agonist PGE2
T6 construct: expressed in transfected cells
T6 sequence (P34995 1-402): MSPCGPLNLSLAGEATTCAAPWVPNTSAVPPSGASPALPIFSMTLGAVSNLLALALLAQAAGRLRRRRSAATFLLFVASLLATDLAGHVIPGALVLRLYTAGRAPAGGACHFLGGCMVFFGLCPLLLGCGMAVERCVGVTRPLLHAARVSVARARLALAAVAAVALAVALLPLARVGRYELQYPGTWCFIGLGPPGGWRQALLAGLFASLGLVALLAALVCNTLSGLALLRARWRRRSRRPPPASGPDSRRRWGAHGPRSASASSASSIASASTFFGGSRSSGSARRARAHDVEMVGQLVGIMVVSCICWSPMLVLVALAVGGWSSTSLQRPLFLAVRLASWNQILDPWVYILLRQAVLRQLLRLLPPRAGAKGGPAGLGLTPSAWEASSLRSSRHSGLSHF
Procedure: as §1, §2, §3, §4

[7] = target: T7, human recombinant prostanoid IP receptor (Homo sapiens, UniProt P43119); experiment: FLIPR Ca2+ signaling PG antagonist assay, IP receptor stable cell line; conditions: HEK-293 EBNA cells, standard agonist Cicaprost
T7 construct: expressed in transfected cells
T7 sequence (P43119 whole entry): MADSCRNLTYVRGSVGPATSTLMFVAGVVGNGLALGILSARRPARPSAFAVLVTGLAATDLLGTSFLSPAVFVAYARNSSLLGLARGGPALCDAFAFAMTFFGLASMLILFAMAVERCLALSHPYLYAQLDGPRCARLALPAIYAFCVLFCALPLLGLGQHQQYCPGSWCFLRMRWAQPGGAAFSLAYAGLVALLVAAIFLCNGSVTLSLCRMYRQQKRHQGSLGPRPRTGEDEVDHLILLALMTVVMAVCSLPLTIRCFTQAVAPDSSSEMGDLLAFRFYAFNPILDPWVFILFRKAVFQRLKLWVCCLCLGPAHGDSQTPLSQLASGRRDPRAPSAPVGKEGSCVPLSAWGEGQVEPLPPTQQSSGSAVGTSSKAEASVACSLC
Procedure: as §1, §2, §3, §4

[8] = target: T8, human recombinant prostanoid EP2 receptor (Homo sapiens, UniProt P43116); experiment: FLIPR Ca2+ signaling PG antagonist assay, EP2 receptor stable cell line; conditions: HEK-293 EBNA cells with chimeric Gqs, standard agonist PGE2
T8 construct: expressed in transfected cells; co-transfected with chimeric Gqs-HA
T8 sequence (P43116 whole entry): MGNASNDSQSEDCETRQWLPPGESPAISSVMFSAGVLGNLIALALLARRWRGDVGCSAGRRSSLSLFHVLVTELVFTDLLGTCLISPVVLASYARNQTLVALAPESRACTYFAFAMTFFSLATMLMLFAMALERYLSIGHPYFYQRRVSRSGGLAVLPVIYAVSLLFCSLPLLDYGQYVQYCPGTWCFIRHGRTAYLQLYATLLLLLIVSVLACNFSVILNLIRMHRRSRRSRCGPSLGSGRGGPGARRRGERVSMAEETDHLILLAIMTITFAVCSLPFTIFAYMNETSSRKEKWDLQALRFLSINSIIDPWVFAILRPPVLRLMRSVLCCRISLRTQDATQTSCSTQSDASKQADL
Procedure: as §1, §2, §3, §4

Row | SMILES | Kb [1] [nM] | Kb [2] [nM] | Kb [3] [nM] | Kb [4] [nM] | Kb [5] [nM] | Kb [6] [nM] | Kb [7] [nM] | Kb [8] [nM]
1 | Cc1cc(C(=O)O)nn1Cc1cc(Cl)ccc1OCC1CCCC1 [Example 1, 1-(5-CHLORO-2-CYCLOPENTYLMETHOXY-BENZYL)-5-METHYL-1H-PYRAZOLE-3-CARBOXYLIC ACID] | ≥ 10000 | < 1 | 150 | 800 | 800 | 30 | ≥ 10000 | ≥ 10000
2 | Cc1cc(C(=O)O)nn1Cc1cc(Br)ccc1OCC1CCCC1 [Example 2, 1-(5-BROMO-2-CYCLOPENTYLMETHOXY-BENZYL)-5-METHYL-1H-PYRAZOLE-3-CARBOXYLIC ACID] | ≥ 10000 | < 1 | 20 | 400 | 400 | 10 | 1300 | ≥ 10000
3 | Cc1cc(C(=O)O)nn1Cc1cc(C(F)(F)F)ccc1OCC1CCCC1 [Example 3, 1-(2-CYCLOPENTYLMETHOXY-5-TRIFLUOROMETHYL-BENZYL)-5-METHYL-1H-PYRAZOLE-3-CARBOXYLIC ACID] | ≥ 10000 | 1 | 80 | 700 | 700 | 5 | 4000 | 8900
4 | COc1ccc(COc2ccc(Cl)cc2Cn2nc(C(=O)NS(=O)(=O)c3ccccc3)cc2C)cc1 [Example 4, N-{1-[5-CHLORO-2-(4-METHOXY-BENZYLOXY)-BENZYL]-5-METHYL-1H-PYRAZOLE-3-CARBONYL}-BENZENESULFONAMIDE] | 2500 | 2 | 400 | 140 | 800 | 10 | 900 | 4900
5 | Cc1cc(C(=O)NS(=O)(=O)c2ccccc2)nn1Cc1cc(Cl)ccc1OCc1ccc(Cl)cc1 [Example 5, N-{1-[5-CHLORO-2-(4-CHLORO-BENZYLOXY)-BENZYL]-5-METHYL-1H-PYRAZOLE-3-CARBONYL}-BENZENESULFONAMIDE] | 1500 | 10 | 1700 | 75 | 2600 | 10 | 2000 | ≥ 10000
6 | CCC(CC)COc1ccc(Br)cc1Cn1nc(C(=O)O)cc1C [Example 6, 1-[5-BROMO-2-(2-ETHYL-BUTOXY)-BENZYL]-5-METHYL-1H-PYRAZOLE-3-CARBOXYLIC ACID] | ≥ 10000 | < 1 | 35 | 800 | 150 | 10 | 500 | 6200
7 | CCC(C)(CC)COc1ccc(Br)cc1Cn1nc(C(=O)O)cc1C [Example 7, 1-[5-BROMO-2-(2-ETHYL-2-METHYL-BUTOXY)-BENZYL]-5-METHYL-1H-PYRAZOLE-3-CARBOXYLIC ACID] | ≥ 10000 | 11 | 80 | 2070 | 150 | 19 | 1700 | 3600
8 | Cc1cc(C(=O)O)nn1Cc1cc(Br)ccc1OCC1CCC1 [Example 8, 1-(5-BROMO-2-CYCLOBUTYLMETHOXY-BENZYL)-5-METHYL-1H-PYRAZOLE-3-CARBOXYLIC ACID] | 4100 | 8 | 8 | 700 | 130 | 10 | 5600 | ≥ 10000
9 | Cc1cc(C(=O)O)nn1Cc1cc(Br)ccc1OCC1(C(F)(F)F)CCC1 [Example 9, 1-[5-BROMO-2-(1-TRIFLUOROMETHYL-CYCLOBUTYLMETHOXY)-BENZYL]-5-METHYL-1H-PYRAZOLE-3-CARBOXYLIC ACID] | 2600 | 10 | 30 | 600 | 190 | 16 | ≥ 10000 | 3300
